The results in this text go back to US5578608A, “Symmetrical diaryl and diheteroanyl cis epoxy alkanes antiviral compounds” (Eli Lilly and Company, priority 1995, dated 1996).

For one assay, the target named is T1, HIV-1 protease (Human immunodeficiency virus type 1 group M subtype B, UniProt P04585).
T1 construct: made in house; host or cells: E. coli K12 L507/pHP10D (NRRL B-18560)
Briefly: biochemical. The following applies: 16 h incubation at room temperature, MES-ALB buffer pH 5.5; normalized to a positive control. Here is the method:
A culture of E. coli K12 L507/pHP10D was grown to mid-log phase at 32° C. in LB media containing 12.5 μg/ml tetracycline. The cultivation temperature was quickly elevated to 40° C. to induce gene expression, and the cells were allowed to grow for 2.5 hours at this temperature before the culture was quickly chilled on ice. The cells were centrifuged and the cell pellet was resuspended in 20 mL 50 mmol MES buffer (pH 6.0) containing 1 mmol EDTA, 1 mmol DTT, 1 mmol PMSF and 10% glycerol ("Buffer A"). Cells were lysed by sonication using a Fischer Model 300 Dismembrator and a microtip probe. Following centrifugation at 27,000 x g, the supernatant was diluted to a total volume of 60 mL with Buffer A and loaded onto a 2.0×19 cm QAE-Sepharose column (1 mL/min, 4° C.), that had been equilibrated in Buffer A. The column was washed isocratically for 180 min and then eluted with a gradient eluent of 0-1.0M NaCl in Buffer A over 120 min. Enzymatic activity was measured by HPLC using the synthetic peptide SQNYPIV as described in Margolin et al., Biochem. Biophys. Res. Commun., […], 554-560 (1990); the production of the p1 peptide (SQNY) was measured.
N^a -Biotin-[…]N^e -FITC)-OH SEQ ID NO: 1
The following buffers and solutions are used in the Fluorescence HIV-1 Protease Inhibitor Assay:
To each well of a round bottom, 96-well plate is added 20 μL of the Enzyme Solution followed by 10 μL of the compound to be evaluated in a 20% aqueous dimethylsulfoxide solution. Purified HIV-1 protease was obtained as described above. The resulting solution is incubated for one hour at room temperature and then 20 μL of a solution containing the substrate, N^a -Biotin-[…]N^e-FITC)-OH, in MES-ALB buffer ([…]) is added to each well. The solutions are then incubated for 16 hours at room temperature and then each well is diluted with 150 μL of MES-ALB buffer.
To each well of a second round bottom, 96-well Pandex plate is added 25 uL of the Avidin Coated Beads Solution. Then, to each well is added 25 μL of the diluted incubation solutions, prepared above. The solutions are mixed thoroughly and the plates are loaded into a Pandex® machine, washed, evacuated and read. Sample detection was performed by excitation at 485 nm, reading the resulting epifluorescence at 535 nm.
Take `CC(C)(C)C(NC(=O)OCc1cccnc1)C(=O)NC(Cc1ccccc1)C1OC1C(Cc1ccccc1)NC(=O)C(NC(=O)OCc1cccnc1)C(C)(C)C` [Example 23, 1,6-Diphenyl-2(S),5(S)-di[N-[2(S)-N(pyrid-3-ylmethoxycarbonyl)amino-3,3-dimethylbutanoyl]amino]-3,4-cis-epoxyhexane]: the “Fluorescence Assay IC50” value came to 497 ng/mL.

Still in this assay, the particulars now being: 16 h incubation at room temperature, MES-ALB buffer pH 5.5; normalized to a positive control; read-out: Fluorescence Assay IC50 (converted).
By IC50 is commonly meant the concentration at which inhibition is half-maximal. Turning to `CC[C@H](C)[C@H](NC(=O)N(C)Cc1ccccn1)C(=O)N[C@@H](Cc1ccccc1)[C@@H]1O[C@@H]1[C@H](Cc1ccccc1)NC(=O)[C@@H](NC(=O)N(C)Cc1ccccn1)[C@@H](C)CC` [Example 24, 1,6-Diphenyl-2(S),5(S)-di[N-[2(S)-N[[N(methyl)-N(pyrid-2-ylmethyl)amino]carbonyl]amino-3(S)-methylpentanoyl]amino]-3,4-cis-epoxyhexane], the concentration for half-maximal inhibition (IC50) is 163 nM.
Still for that read-out and setting: the same measure for `CC[C@H](C)[C@H](NC(=O)OCc1ccccc1)C(=O)N[C@@H](Cc1ccccc1)[C@@H]1O[C@@H]1[C@H](Cc1ccccc1)NC(=O)[C@@H](NC(=O)OCc1ccccc1)[C@@H](C)CC` [Example 14]: 236 nM.

The assay is the same for the next values; noted with them: * average IC50; 16 h incubation at room temperature, MES-ALB buffer pH 5.5; normalized to a positive control; read-out: Fluorescence Assay average IC50 (marked *) (converted).
For `CSC[C@@H](NC(=O)OCc1ccccc1)C(=O)N[C@@H](Cc1ccccc1)[C@@H]1O[C@@H]1[C@H](Cc1ccccc1)NC(=O)[C@@H](CSC)NC(=O)OCc1ccccc1` [Example 11, 1,6-Diphenyl-2(S),5(S)-di[N-[2(S)-N(benzyloxycarbonyl)amino-3-methylthiopropanoyl]amino]-3,4-cis-epoxyhexane], the IC50 is 248 nM.

Staying with this assay, now noted: at 1000 ng/ml; read-out: Fluorescence Assay, given as ICxx (1000): xx is the percent inhibition.
In general, inhibition refers to the relative decrease from the control value, in per cent. As to `CC(C)[C@H](NC(=O)c1ccc2ccccc2n1)C(=O)N[C@@H](Cc1ccccc1)[C@@H]1O[C@@H]1[C@H](Cc1ccccc1)NC(=O)[C@@H](NC(=O)c1ccc2ccccc2n1)C(C)C` [Example 26, 1,6-Diphenyl-2(S),5(S)-di[N-[2(S)-N(quinolin-2-ylcarbonyl)amino-3-methylbutanoyl]amino]-3,4-cis-epoxyhexane], the inhibition at 1 µg/mL came out at 23%.
Still for that read-out and setting: the same measure for `CC(C)[C@H](NC(=O)OCc1ccccn1)C(=O)N[C@@H](CCc1ccccc1)[C@@H]1O[C@@H]1[C@H](CCc1ccccc1)NC(=O)[C@@H](NC(=O)OCc1ccccn1)C(C)C` [Example 36]: 26%; for `CCC(NC(=O)N(C)Cc1ccccn1)C(=O)NC(CSc1ccc2ccccc2c1)C1OC1C(CSc1ccc2ccccc2c1)NC(=O)C(CC)NC(=O)N(C)Cc1ccccn1` [Example 35, 1,6-Dinaphth-2-ylthio-2(S),5(S)-di[N-[2(S)-N-[[N(methyl)-N (pyrid-2-ylmethyl)amino]carbonyl]aminobutanoyl]amino]-3,4-cis-epoxyhexane]: 23%.

Staying with this assay, now noted: read-out: Fluorescence Assay IC50 (converted).
`O=C(N[C@@H](Cn1cccn1)C(=O)N[C@@H](Cc1ccccc1)[C@@H]1O[C@@H]1[C@H](Cc1ccccc1)NC(=O)[C@H](Cn1cccn1)NC(=O)OCc1ccccc1)OCc1ccccc1` [Example 7, 1,6-Diphenyl-2(S),5(S)-di[N-[2(S)-N(benzyloxycarbonyl)amino-3-pyrazol-1-ylpropanoyl]amino]3,4-cis-epoxyhexane]: the IC50 was 8260 nM.
With `CC(C)C[C@H](NC(=O)OCc1ccccn1)C(=O)N[C@@H](Cc1ccccc1)[C@@H]1O[C@@H]1[C@H](Cc1ccccc1)NC(=O)[C@H](CC(C)C)NC(=O)OCc1ccccn1` [Example 13, 1,6-Diphenyl-2(S),5(S)-di[N-[2(S)-N(pyrid-2-ylmethoxycarbonyl)amino-4-methylpentanoyl]amino]-3,4-cis-epoxyhexane], the concentration for half-maximal inhibition (IC50) was 2880 nM.
On the same count and under the same terms, the same measure for `N#CC[C@H](NC(=O)OCc1ccccc1)C(=O)N[C@@H](Cc1ccccc1)[C@@H]1O[C@@H]1[C@H](Cc1ccccc1)NC(=O)[C@H](CC#N)NC(=O)OCc1ccccc1` [Example 6, 1,6-Diphenyl-2(S),5(S)-di[N-[2(S)-N(benzyloxycarbonyl)amino-3-cyanopropanoyl]amino]-3,4-cis-epoxyhexane]: 880 nM.
For the molecule `Cc1cccc(COC(=O)N[C@H](C(=O)N[C@@H](Cc2ccccc2)[C@@H]2O[C@@H]2[C@H](Cc2ccccc2)NC(=O)[C@@H](NC(=O)OCc2cccc(C)n2)C(C)C)C(C)C)n1` [Example 29, 1,6-Diphenyl-2(S),5(S)-di[N-[2(S)-N(6-methylpyrid-2-ylmethoxycarbonyl)amino-3-methylbutanoyl]amino]-3,4-cis-epoxyhexane], the IC50 was 39.2 nM.
Same read-out and setting: the same measure for `CC(C)(C)[C@H](NC(=O)OCc1ccc2ccccc2n1)C(=O)N[C@@H](Cc1ccccc1)[C@@H]1O[C@@H]1[C@H](Cc1ccccc1)NC(=O)[C@@H](NC(=O)OCc1ccc2ccccc2n1)C(C)(C)C` [Example 30]: 382 nM; for `O=C(N[C@@H](Cc1c[nH]cn1)C(=O)N[C@@H](Cc1ccccc1)[C@@H]1O[C@@H]1[C@H](Cc1ccccc1)NC(=O)[C@H](Cc1c[nH]cn1)NC(=O)OCc1ccccc1)OCc1ccccc1` [Example 9, 1,6-Diphenyl-2(S),5(S)-di[N-[2(S)-N(benzyloxycarbonyl)amino-3-imidazol-4-yl-propanoyl]amino]-3,4-cis-epoxyhexane]: 84.2 nM.
Same read-out and setting: the same measure for `CN(Cc1ccc2ccccc2n1)C(=O)N[C@@H](CC#N)C(=O)N[C@@H](Cc1ccccc1)[C@@H]1O[C@@H]1[C@H](Cc1ccccc1)NC(=O)[C@H](CC#N)NC(=O)N(C)Cc1ccc2ccccc2n1` [Example 27, 1,6-Diphenyl-2(S),5(S)-di [N-[2(S)-N[[N(methyl)-N(quinolin-2-ylmethyl)amino]carbonyl]amino-3-cyanopropanoyl]amino]-3,4-cis-epoxyhexane]: 30.7 nM; for `CC[C@H](C)[C@H](NC(=O)OCc1ccc2ccccc2n1)C(=O)N[C@@H](Cc1ccccc1)[C@@H]1O[C@@H]1[C@H](Cc1ccccc1)NC(=O)[C@@H](NC(=O)OCc1ccc2ccccc2n1)[C@@H](C)CC` [Example 15, 1,6-Diphenyl-2(S),5(S)-di[N-[2(S)-N[(quinolin-2-ylmethoxy)carbonyl]amino-3(S)-methylpentanoyl]amino]-3,4-cis-epoxyhexane]: 27.3 nM; for `CC[C@H](NC(=O)N(C)Cc1ccccn1)C(=O)N[C@@H](Cc1ccccc1)[C@@H]1O[C@@H]1[C@H](Cc1ccccc1)NC(=O)[C@H](CC)NC(=O)N(C)Cc1ccccn1` [Example 28, 1,6-Diphenyl-2(S),5(S)-di[N-[2(S)-N[[N(methyl)-N(pyrid-2-ylmethyl)amino]carbonyl]aminobutanoyl]amino]-3,4-cis-epoxyhexane]: 1090 nM.

The same assay, now with this note: read-out: Fluorescence Assay average IC50 (marked *) (converted).
Regarding `CC(C)[C@H](NC(=O)OCc1ccccn1)C(=O)N[C@@H](Cc1ccccc1)[C@@H]1O[C@@H]1[C@H](Cc1ccccc1)NC(=O)[C@@H](NC(=O)OCc1ccccn1)C(C)C` [Example 8, 1,6-Diphenyl-2(S),5(S)-di[N-[2(S)-N(pyrid-2-ylmethoxycarbonyl)amino-3-methylbutanoyl]amino]-3,4-cis-epoxyhexane], the IC50 is 349 nM.
Same read-out and setting: the same measure for `CC[C@H](NC(=O)N(C)Cc1ccc2ccccc2n1)C(=O)N[C@@H](Cc1ccccc1)[C@@H]1O[C@@H]1[C@H](Cc1ccccc1)NC(=O)[C@H](CC)NC(=O)N(C)Cc1ccc2ccccc2n1` [Example 18, 1,6-Diphenyl-2(S),5(S)-di[N-[2(S)-N-[[N(methyl)-N(quinolin-2-ylmethyl)amino]carbonyl]aminobutanoyl]amino]-3,4-cis-epoxyhexane]: 8.36 nM; for `CC(C)[C@H](NC(=O)OCc1ccc2cccc(F)c2n1)C(=O)N[C@@H](Cc1ccccc1)[C@@H]1O[C@@H]1[C@H](Cc1ccccc1)NC(=O)[C@@H](NC(=O)OCc1ccc2cccc(F)c2n1)C(C)C` [Example 17, 1,6-Diphenyl-2(S),5(S)-di[N-[2(S)-N[(8-fluoroquinolin-2-ylmethoxy)carbonyl]amino-3-methylbutanoyl]amino]-3,4-cis-epoxyhexane]: 23.1 nM.
